Series [1] deals with P-gp, MRP1 and BCRP transporters. Kind of series: Selectivity for ABC transporters, determined from % of reversion (Tables 1 and 2). The format is cell-based, human. Particulars: determined from % of reversion in Table 1 (>80% strongly, 79-50% moderately selective). The gist of the method: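 Selectivity assigned from % reversion of resistance mediated by P-gp, MRP1 and BCRP. Over 80% reversion counts as strongly selective, 79-50% as moderately selective. Compounds are classed as mono-, dual- or multi-selective.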

Another series can be described thus: in vitro. Particulars: mouse.
Series [2] concerns the target T1, MRP1 (Homo sapiens, UniProt P33527). Kind of series: cell-based.
Series [3] addresses T2, BCRP (Homo sapiens, UniProt Q9UNQ0).
T2 sequence (Q9UNQ0 1-655): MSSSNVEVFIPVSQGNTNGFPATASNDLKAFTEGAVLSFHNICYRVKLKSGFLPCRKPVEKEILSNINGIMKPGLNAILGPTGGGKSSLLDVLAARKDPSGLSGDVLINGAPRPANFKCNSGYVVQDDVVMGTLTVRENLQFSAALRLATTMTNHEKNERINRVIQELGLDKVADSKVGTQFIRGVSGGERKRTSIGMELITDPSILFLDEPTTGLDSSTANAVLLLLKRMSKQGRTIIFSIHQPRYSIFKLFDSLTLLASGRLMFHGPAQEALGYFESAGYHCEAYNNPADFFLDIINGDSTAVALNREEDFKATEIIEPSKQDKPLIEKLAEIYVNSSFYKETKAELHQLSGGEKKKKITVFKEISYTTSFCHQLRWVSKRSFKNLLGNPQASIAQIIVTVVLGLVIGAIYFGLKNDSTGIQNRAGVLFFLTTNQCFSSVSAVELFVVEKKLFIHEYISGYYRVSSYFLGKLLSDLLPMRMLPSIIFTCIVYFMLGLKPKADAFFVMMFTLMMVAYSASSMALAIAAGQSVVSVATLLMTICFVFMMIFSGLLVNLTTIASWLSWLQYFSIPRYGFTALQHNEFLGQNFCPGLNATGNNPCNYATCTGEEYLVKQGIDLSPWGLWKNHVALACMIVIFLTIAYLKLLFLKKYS
Kind of series: cell-based.

Series [4] addresses T1, MRP1. Description: Reversal of MRP1-mediated DOX resistance in 2008/MRP1 cells (cell proliferation assay). Particulars: (IC50 towards L929 or Raw264.7)/(EC50 for reversing drug resistance).
Series [5] deals with T1, MRP1. Kind of series: Reversal of MRP1-mediated vincristine resistance in 2008/MRP1 cells (cell proliferation assay). The settings on record: (IC50 towards L929 or Raw264.7)/(EC50 for reversing drug resistance).
The target in series [6] is T3, P-gp (Homo sapiens, UniProt P08183). Particulars: mouse (L929 or Raw264.7) and human (LCC6MDR), 5 days.
T3 sequence (P08183 whole entry): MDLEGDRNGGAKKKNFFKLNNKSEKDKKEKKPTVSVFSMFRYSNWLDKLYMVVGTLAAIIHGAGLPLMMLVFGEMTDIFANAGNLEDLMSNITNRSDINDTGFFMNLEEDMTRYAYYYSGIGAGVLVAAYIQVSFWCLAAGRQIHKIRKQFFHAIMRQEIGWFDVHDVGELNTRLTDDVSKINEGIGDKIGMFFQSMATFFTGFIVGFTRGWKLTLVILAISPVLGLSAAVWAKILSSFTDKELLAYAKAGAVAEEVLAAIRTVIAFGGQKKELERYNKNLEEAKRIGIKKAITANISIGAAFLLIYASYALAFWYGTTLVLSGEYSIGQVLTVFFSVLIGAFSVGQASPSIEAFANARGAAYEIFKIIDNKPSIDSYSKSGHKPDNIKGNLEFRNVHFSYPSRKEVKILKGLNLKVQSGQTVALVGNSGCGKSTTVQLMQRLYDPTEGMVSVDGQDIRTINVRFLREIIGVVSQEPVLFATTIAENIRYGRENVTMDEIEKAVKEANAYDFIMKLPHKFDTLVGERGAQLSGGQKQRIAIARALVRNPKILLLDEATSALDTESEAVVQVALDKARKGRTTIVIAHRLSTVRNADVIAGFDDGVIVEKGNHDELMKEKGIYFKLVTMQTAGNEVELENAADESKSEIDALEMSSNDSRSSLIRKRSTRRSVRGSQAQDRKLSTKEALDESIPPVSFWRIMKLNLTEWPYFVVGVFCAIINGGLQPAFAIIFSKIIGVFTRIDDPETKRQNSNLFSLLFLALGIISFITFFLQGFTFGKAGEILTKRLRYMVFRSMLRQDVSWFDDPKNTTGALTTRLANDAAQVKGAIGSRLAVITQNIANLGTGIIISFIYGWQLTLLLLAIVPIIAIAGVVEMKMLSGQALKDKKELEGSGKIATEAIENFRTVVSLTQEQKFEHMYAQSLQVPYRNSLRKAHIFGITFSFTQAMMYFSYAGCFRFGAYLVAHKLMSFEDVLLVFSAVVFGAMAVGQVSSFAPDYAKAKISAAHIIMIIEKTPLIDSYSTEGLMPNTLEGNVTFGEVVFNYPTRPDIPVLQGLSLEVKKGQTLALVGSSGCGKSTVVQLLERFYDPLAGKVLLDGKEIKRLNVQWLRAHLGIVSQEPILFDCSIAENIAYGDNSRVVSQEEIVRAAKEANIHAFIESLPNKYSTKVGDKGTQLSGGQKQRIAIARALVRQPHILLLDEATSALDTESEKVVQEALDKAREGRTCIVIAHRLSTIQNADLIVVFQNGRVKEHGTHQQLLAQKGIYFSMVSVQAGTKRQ
Series [7] has as its target T3, P-gp. Description: cell-based.
Series [8] has as its target T2, BCRP. Description: Reversal of BCRP-mediated topotecan resistance in MCF7-MX100 cells (cell proliferation assay). The settings on record: (IC50 towards L929 or Raw264.7)/(EC50 for reversing drug resistance).
Series [9] has as its target T1, MRP1. Kind of series: cell-based. This is another data set of the same source.
A further series concerns 2008/MRP1. Kind of series: Cell proliferation assay, 2008/MRP1.

SMILES strings stand for the structures. Like-named read-outs stand apart in the source and are kept apart here. Some results are limits rather than exact numbers.

T1 sequence (P33527 whole entry): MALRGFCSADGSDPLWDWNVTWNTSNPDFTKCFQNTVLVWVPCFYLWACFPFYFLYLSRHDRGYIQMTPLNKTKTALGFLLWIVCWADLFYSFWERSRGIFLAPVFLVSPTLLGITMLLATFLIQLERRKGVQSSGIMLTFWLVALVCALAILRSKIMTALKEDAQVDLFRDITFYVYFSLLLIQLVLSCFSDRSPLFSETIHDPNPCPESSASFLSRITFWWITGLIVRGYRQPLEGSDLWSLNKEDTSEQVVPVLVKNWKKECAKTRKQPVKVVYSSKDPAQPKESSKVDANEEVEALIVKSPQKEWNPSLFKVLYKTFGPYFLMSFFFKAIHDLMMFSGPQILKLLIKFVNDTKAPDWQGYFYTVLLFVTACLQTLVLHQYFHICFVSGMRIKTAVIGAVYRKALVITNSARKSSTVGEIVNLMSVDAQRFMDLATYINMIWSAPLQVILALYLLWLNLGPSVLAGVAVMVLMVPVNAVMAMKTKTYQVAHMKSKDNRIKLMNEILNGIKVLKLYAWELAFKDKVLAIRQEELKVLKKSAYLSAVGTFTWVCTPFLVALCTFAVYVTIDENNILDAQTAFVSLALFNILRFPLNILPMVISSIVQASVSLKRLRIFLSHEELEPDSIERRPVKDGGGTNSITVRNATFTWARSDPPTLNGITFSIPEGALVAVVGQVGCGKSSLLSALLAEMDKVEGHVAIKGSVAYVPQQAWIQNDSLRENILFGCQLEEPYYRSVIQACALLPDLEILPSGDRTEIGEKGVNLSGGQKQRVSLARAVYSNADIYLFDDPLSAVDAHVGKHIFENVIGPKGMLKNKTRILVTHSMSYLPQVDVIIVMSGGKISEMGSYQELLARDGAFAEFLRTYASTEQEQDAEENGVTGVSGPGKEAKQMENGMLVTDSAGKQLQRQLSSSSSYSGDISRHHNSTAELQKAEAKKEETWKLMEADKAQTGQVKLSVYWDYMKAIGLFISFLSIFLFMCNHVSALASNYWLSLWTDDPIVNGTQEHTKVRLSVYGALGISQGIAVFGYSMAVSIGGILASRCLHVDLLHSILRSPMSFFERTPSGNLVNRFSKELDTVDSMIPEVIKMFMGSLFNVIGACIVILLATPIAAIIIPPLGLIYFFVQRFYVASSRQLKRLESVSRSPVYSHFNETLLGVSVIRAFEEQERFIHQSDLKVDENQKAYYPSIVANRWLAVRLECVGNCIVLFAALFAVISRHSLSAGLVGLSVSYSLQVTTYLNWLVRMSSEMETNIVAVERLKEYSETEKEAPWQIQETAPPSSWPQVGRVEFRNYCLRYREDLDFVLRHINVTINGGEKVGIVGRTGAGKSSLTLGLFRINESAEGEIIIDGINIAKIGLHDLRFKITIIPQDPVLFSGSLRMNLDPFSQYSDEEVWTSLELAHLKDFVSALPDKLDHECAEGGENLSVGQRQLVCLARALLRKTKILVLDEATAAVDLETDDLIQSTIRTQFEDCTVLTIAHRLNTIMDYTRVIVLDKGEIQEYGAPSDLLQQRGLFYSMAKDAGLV

For `Cc1ccc2oc(-c3ccc(OCCOCCOCCn4cc(CN(Cc5ccccc5)Cc5cn(CCOCCOCCOc6ccc(-c7cc(=O)c8cc(C)ccc8o7)cc6)nn5)nn4)cc3)cc(=O)c2c1` [Ac15Az3, 2,2′-((((((((4,4′-((Benzylazanediyl)bis(methylene))bis(1H-1,2,3-triazole-4,1-diyl))bis(ethane-2,1-diyl))bis(oxy))bis(ethane-2,1-diyl))bis(oxy))bis(ethane-2,1-diyl))bis(oxy))bis(4,1-phenylene))bis(6-methyl-4H-chromen-4-one)], the “Selectivity for ABC transporters (P-gp, MRP1, BCRP)” value (from here on “Selectivity … (P-gp, MRP1, BCRP)”) in [1] is “MRP1- and BCRP-dual selectivity”. Also, the IC50 at 5 days in “in vitro” was over 100 µM. Moreover, the EC50 at MRP1 [2] was determined as 0.535 ± 0.0626 µM; at BCRP [3], 0.036 ± 0.004 µM. Also, on MRP1 [4], the “DOX resistance of 2008/MRP1 Therapeutic index” value is reported as over 210.5. Moreover, the “Vincristine resistance of 2008/MRP1 Therapeutic index” value on MRP1 [5] was over 186.9.

For `O=c1cc(-c2ccccc2)oc2cc(OCCCCc3cn(CCOCCOc4ccc(-c5oc6ccccc6c(=O)c5OCc5ccccc5)cc4)nn3)ccc12` [Ac12Az10, 3-(Benzyloxy)-2-(4-(2-(2-(4-(4-((4-oxo-2-phenyl-4H-chromen-7-yl)oxy)butyl)-1H-1,2,3-triazol-1-yl)ethoxy)ethoxy)phenyl)-4H-chromen-4-one], the “Selectivity … (P-gp, MRP1, BCRP)” value in series [1] was “Pgp- and BCRP-dual selectivity”. The “Paclitaxel resistance of LCC6MDR Therapeutic index” value on P-gp [6] was over 303.0. Also, the IC50 at 5 days in “in vitro” was over 100 µM. Besides, a half-maximal effect at P-gp [7] (EC50) was put at 0.33 µM. Also, the “Topotecan resistance of MCF7-MX100 Therapeutic index” value at BCRP [8] is on record as over 2924.0.

For the compound `O=c1cc(-c2ccc(OCCOCCn3cc(CCCCOc4ccc5c(=O)cc(-c6ccccc6)oc5c4)nn3)cc2)oc2ccccc12` [Ac12Az1, 7-(4-(1-(2-(2-(4-(4-Oxo-4H-chromen-2-yl)phenoxy)ethoxy)ethyl)-1H-1,2,3-triazol-4-yl)butoxy)-2-phenyl-4H-chromen-4-one], the “Selectivity … (P-gp, MRP1, BCRP)” value in series [1] was “MRP1- and BCRP-dual selectivity”. Moreover, the IC50 at 5 days in the series “in vitro” was over 100 µM. The compound also registered an EC50 on MRP1 [2] of 0.084 ± 0.011 µM. Also, at MRP1 [5], the “Vincristine resistance of 2008/MRP1 Therapeutic index” value is over 1190.5.

In turn, `Cc1ccc2oc(-c3ccc(OCCCCc4cn(CCOCCOc5ccc6c(=O)cc(-c7ccccc7)oc6c5)nn4)cc3)cc(=O)c2c1` [Ac5Az11, 6-Methyl-2-(4-(4-(1-(2-(2-((4-oxo-2-phenyl-4H-chromen-7-yl)oxy)ethoxy)ethyl)-1H-1,2,3-triazol-4-yl)butoxy)phenyl)-4H-chromen-4-one] returned an IC50 at 5 days in “in vitro” of over 100 µM. Moreover, the EC50 at P-gp [7] amounted to 0.16 ± 0.021 µM; at MRP1 [2], 0.135 ± 0.01 µM.

With `O=c1cc(-c2ccc(OCCOCCOCCn3cc(CN(Cc4ccccc4)Cc4cn(CCOCCOCCOc5ccc(-c6cc(=O)c7ccccc7o6)cc5)nn4)nn3)cc2)oc2ccccc12` [Ac15Az2, 2,2′-((((((((4,4′-((Benzylazanediyl)bis(methylene))bis(1H-1,2,3-triazole-4,1-diyl))bis(ethane-2,1-diyl))bis(oxy))bis(ethane-2,1-diyl))bis(oxy))bis(ethane-2,1-diyl))bis(oxy))bis(4,1-phenylene))bis(4H-chromen-4-one)], the “Selectivity … (P-gp, MRP1, BCRP)” value in [1] is “mono-MRP1 selectivity”. Moreover, the IC50 at 5 days in the series “in vitro” was over 100 µM. For the same compound, the values for the EC50 on MRP1 [9] and at MRP1 [2] were 0.53 ± 0.12 µM and 0.55 µM, respectively. On MRP1 [4], the “DOX resistance of 2008/MRP1 Therapeutic index” value is reported as over 188.7. Moreover, the “Vincristine resistance of 2008/MRP1 Therapeutic index” value on MRP1 [5] is over 181.8.

Turning to `COCOc1cc(O)c2c(=O)cc(-c3ccc(OCCCc4cn(CCOCCOc5ccc(-c6cc(=O)c7ccccc7o6)cc5)nn4)cc3)oc2c1` [Ac4(5OH)Az1, 5-Hydroxy-7-(methoxymethoxy)-2-(4-(3-(1-(2-(2-(4-(4-oxo-4H-chromen-2-yl)phenoxy)ethoxy)ethyl)-1H-1,2,3-triazol-4-yl)propoxy)phenyl)-4H-chromen-4-one], the “Selectivity … (P-gp, MRP1, BCRP)” value in series [1] is “MRP1- and BCRP-dual selectivity”. For the same compound, the IC50 at 5 days in “in vitro” was over 100 µM. At MRP1 [9], this compound showed a half-maximal effective concentration (EC50) of 0.11 ± 0.015 µM. For the same compound, the “DOX resistance of 2008/MRP1 Therapeutic index” value on MRP1 [4] is listed as over 909.1. Besides, the “Topotecan resistance of MCF7-MX100 Therapeutic index” value at BCRP [8] is over 1960.8.

On to `Cc1ccc2oc(-c3ccc(OCCCCc4cn(CCOCCOc5ccc(-c6cc(=O)c7cc(F)ccc7o6)cc5)nn4)cc3)cc(=O)c2c1` [Ac5Az7, 6-Fluoro-2-(4-(2-(2-(4-(4-(4-(6-methyl-4-oxo-4H-chromen-2-yl)phenoxy)butyl)-1H-1,2,3-triazol-1-yl)ethoxy)ethoxy)phenyl)-4H-chromen-4-one], for which the IC50 at 5 days in “in vitro” is over 100 µM. At P-gp [7], this compound showed a concentration giving a half-maximal response (EC50) of 0.157 µM.

`O=c1cc(-c2ccccc2)oc2cc(OCCOCc3cn(CCOCCOc4ccc(-c5oc6ccccc6c(=O)c5OCc5ccccc5)cc4)nn3)ccc12` [Ac13Az10, 3-(Benzyloxy)-2-(4-(2-(2-(4-((2-((4-oxo-2-phenyl-4H-chromen-7-yl)oxy)ethoxy)methyl)-1H-1,2,3-triazol-1-yl)ethoxy)ethoxy)phenyl)-4H-chromen-4-one]: the “Selectivity … (P-gp, MRP1, BCRP)” value in [1] was “Pgp- and BCRP-dual selectivity”. Further, the “Paclitaxel resistance of LCC6MDR Therapeutic index” value at P-gp [6] was over 294.1. For the same compound, the IC50 at 5 days in “in vitro” is over 100 µM. Also, the EC50 at P-gp [7] amounted to 0.34 µM. Further, the “Topotecan resistance of MCF7-MX100 Therapeutic index” value at BCRP [8] is over 845.3.

As for `O=c1cc(-c2ccccc2)oc2cc(OCCCCc3cn(CCOCCOCCOc4ccc5c(=O)cc(-c6ccccc6)oc5c4)nn3)ccc12` [Ac12Az12, 7-(2-(2-(2-(4-(4-((4-Oxo-2-phenyl-4H-chromen-7-yl)oxy)butyl)-1H-1,2,3-triazol-1-yl)ethoxy)ethoxy)ethoxy)-2-phenyl-4H-chromen-4-one], the “Selectivity … (P-gp, MRP1, BCRP)” value in [1] was “MRP1- and BCRP-dual selectivity”. The compound also returned an IC50 at 5 days in the series “in vitro” of over 100 µM. The figures for the EC50 at MRP1 [2] and at BCRP [3] were 0.168 µM and 0.034 µM, respectively. Besides, the “DOX resistance of 2008/MRP1 Therapeutic index” value at MRP1 [4] is over 740.7. Besides, on MRP1 [5], the “Vincristine resistance of 2008/MRP1 Therapeutic index” value is recorded as over 595.2.

On to `CC[C@]1(O)C[C@H]2CN(CCc3c([nH]c4ccccc34)[C@@](C(=O)OC)(c3cc4c(cc3OC)N(C=O)[C@H]3[C@@](O)(C(=O)OC)[C@H](OC(C)=O)[C@]5(CC)C=CCN6CC[C@]43[C@@H]65)C2)C1` [vincristine], for which, in the series with 2008/MRP1 (Homo sapiens, 2008/MRP1, read-out: IC50 of anticancer drug, 2008/MRP1), the IC50 came to 0.123 µM. For the same compound, the “fold more resistance of 2008/MRP1 than parental 2008/P” value in the series on 2008/MRP1 (without modulator) was “about 2.4 fold”.

On to `O=c1cc(-c2ccccc2)oc2cc(OCCCCc3cn(CCOCCOc4ccc5c(=O)cc(-c6ccccc6)oc5c4)nn3)ccc12` [Ac12Az11, 7-(2-(2-(4-(4-((4-Oxo-2-phenyl-4H-chromen-7-yl)oxy)butyl)-1H-1,2,3-triazol-1-yl)ethoxy)ethoxy)-2-phenyl-4H-chromen-4-one], for which the “Selectivity … (P-gp, MRP1, BCRP)” value in series [1] was “MRP1- and BCRP-dual selectivity”. Further, the IC50 at 5 days in the series “in vitro” is over 100 µM. The concentration for a half-maximal effect (EC50) on MRP1 [2] amounted to 0.169 µM; on BCRP [3] it was 0.03 µM. Moreover, the “DOX resistance of 2008/MRP1 Therapeutic index” value on MRP1 [4] is over 877.2. Moreover, at MRP1 [5], the “Vincristine resistance of 2008/MRP1 Therapeutic index” value is over 591.7.

As for `O=c1cc(-c2ccccc2)oc2cc(OCCCCc3cn(CCOCCOc4ccc(-c5cc(=O)c6cc(F)ccc6o5)cc4)nn3)ccc12` [Ac12Az7, 6-Fluoro-2-(4-(2-(2-(4-(4-((4-oxo-2-phenyl-4H-chromen-7-yl)oxy)butyl)-1H-1,2,3-triazol-1-yl)ethoxy)ethoxy)phenyl)-4H-chromen-4-one], in series [1], the “Selectivity … (P-gp, MRP1, BCRP)” value is “MRP1- and BCRP-dual selectivity”. In “in vitro”, this compound gave an IC50 at 5 days of over 100 µM. Further, at MRP1 [2], the concentration giving a half-maximal response (EC50) turned out to be 0.0933 ± 0.0205 µM. At MRP1 [4], the “DOX resistance of 2008/MRP1 Therapeutic index” value is reported as over 580.4. At MRP1 [5], the “Vincristine resistance of 2008/MRP1 Therapeutic index” value was over 1071.8.
